Data from paper PMC10791743, “Selective CK1α degraders exert antiproliferative activity against a broad range of human cancer cell lines” (Nature Communications, 2024).
Where “and” joins values, the source holds several entries; their conditions need not be identical. Equal entries are not always repeated. Entries after “also recorded” stand apart in the source; their conditions may differ.

System: MOLM-13 cells overexpressing FLAG-tagged CK1α G40N mutant
Assay: CK1α mutant rescue, CTG viability, FLAG-CK1α G40N MOLM-13
Assay type: cell-based, human
Experimental: To evaluate the contribution of the CK1α degradation in SJ3149-mediated cytotoxicity, we utilized the degradation-resistant mutant CK1α G40N[41]. MOLM-13 cells were transduced with lentivirus to overexpress FLAG-tagged wild type CK1α or the G40N mutant, which removes the essential glycine in the CK1α degron G-loop.
The media was changed after cells rested in the 37 °C incubator overnight. […] As described above in the Molecular Glue Library Screening section, transduced MOLM-13 cells were seeded in 384-well plates at 1250 cells per well and allowed to rest overnight. 30 nl of CK1α degraders of interest were deposited on the cells using an Echo 650 acoustic liquid handler […]. […] This was done twice for a total of six technical replicates.

O=C1CCC(N2Cc3cc(Nc4noc5ccccc45)ccc3C2=O)C(=O)N1 (stereo not shown) [SJ3149]
Viability response of cells expressing CK1α G40N vs wild type CK1α (CTG 72 h): no longer sensitive to SJ3149; also recorded: reduced response | cell viability percentages, CK1a G40N (Concentration 0.000542): 79.1206% and 68.9136% and 86.2719% and 90.6755% and 74.2686% and 67.4931% | cell viability percentages, CK1a G40N (Concentration 0.001625): 77.8434% and 63.4222% and 59.9052% and 65.772% and 68.5727% and 55.5817% | cell viability percentages, CK1a G40N (Concentration 0.004875): 72.8442% and 62.075% and 50.1243% and 53.1953% and 62.3344% and 69.4392% | cell viability percentages, CK1a G40N (Concentration 0.014624): 59.4413% and 49.1388% and 62.3084% and 70.556% and 54.4032% and 55.8792% | cell viability percentages, CK1a G40N (Concentration 0.043872): 47.6849% and 48.0051% and 58.611% and 66.0269% and 52.3495% and 54.2867% | cell viability percentages, CK1a G40N (Concentration 0.131617): 56.3532% and 47.9219% and 49.9326% and 67.2267% and 57.1406% and 57.2358% | cell viability percentages, CK1a G40N (Concentration 0.394851): 51.3415% and 43.4521% and 48.9175% and 55.4224% and 56.3876% and 59.8672% | cell viability percentages, CK1a G40N (Concentration 1.18455): 47.8506% and 47.8436% and 44.0498% and 54.2517% and 50.6636% and 54.2115% | cell viability percentages, CK1a G40N (Concentration 3.55366): 37.4202% and 38.8791% and 44.5898% and 50.284% and 52.251% and 51.3543%
